From patent US20260315565A1, “ANTIOXIDANT-CONTAINING EYE DROP FORMULATIONS AND METHODS OF PREVENTION AND/OR TREATMENT USING SAME” (Marizyme, Inc., priority 2022, published 2026) come the findings set out here.

Series [1] is described as follows: accelerated stability of ascorbic acid in eye drop formulations (UV-VIS, 260 nm). It counts as physicochemical. The following applies: stored at 40° C. for 30 days; pH 3.5 vs pH 5. The procedure: (§1) Namely, appropriate amounts of the various components were weighed and then mixed with “Water for Injection” (WFI) at room temperature in a laminar flow hood to achieve the concentrations listed in Table 1. The various components were dissolved in the WFI using a magnetic stir bar and stirring at 350 rpm, or any appropriate mixing speed, until dissolution was complete. The final pH of each formulation was adjusted to pH 3.5 or pH 5.0, as listed in Table 1, using 5N HCl or 5N NaOH, respectively. The resulting solutions were then passed through a 0.21, […] filter while filling sterile vials with the respective formulations for use in stability studies. […]
(§2) At each point in the testing schedule, physical properties, such as clarity, color, odor, particle count and the like, of the formulations stored in the pulled vials were examined by physical observation. Concentrations of the antioxidants were also measured, and analytical tests of the formulations in the vials were carried out according to the protocol listed in Table 3.
(§3) The analytical assay method for stability testing of total thiols and ascorbic acid in eyedrop formulations (UV-VIS in Table 3) are performed as follows. […] Both components are measured on one sample preparation. […] By applying the appropriate dilution and conversion factors, the concentration of each component in the formulation can be calculated. […]

The nature of series [2]: accelerated stability of glutathione (total thiols) in eye drop formulations (UV-VIS with DTNB, 412 nm). The series is classed as physicochemical. As to conditions: stored at 40° C. for 30 days. The procedure: as §1, §2, §3

For the compound `O=C1O[C@H]([C@@H](O)CO)C(O)=C1O` [ascorbic acid, L-ascorbic acid], the “stability of ascorbic acid” value in series [1] is “more stable at the lower pH of 3.5 compared to pH 5”.

As for `N[C@@H](CCC(=O)N[C@@H](CS)C(=O)NCC(=O)O)C(=O)O` [glutathione, L-glutathione], the “effect of higher molar ratios of ascorbic acid on glutathione stability” value in series [2] is recorded as “destabilizing effect of higher molar ratios of ascorbic acid on glutathione”.
